Earlier results, collected in patent US8410124B2, “Deuterated etravirine” (Concert Pharmaceuticals Inc., priority 2007, dated 2013).

How the values were obtained:
[1] = over a 2 hour period
[2] = humans

For `Cc1cc(C#N)cc(C)c1Oc1nc(Nc2ccc(C#N)cc2)nc(N)c1Br` [etravirine, 4-(6-amino-5-bromo-2-(4-cyanophenylamino)pyrimidin-4-yloxy)-3,5-dimethylbenzonitrile], the “degradation in human liver microsomes” value [1] is given as 15%, the “excreted largely intact in the feces” value ([2]; feces) is given as greater than 85% and the “excreted largely intact in the urine” value ([2]; urine) is given as less than 1%. The “most common adverse effects of the combined regimen” value (healthy volunteers, etravirine in combination with lopinavir/ritonavir) was “diarrhea and headache”, the “safety and tolerability profile” value (phase IIb trials with treatment-experienced patients) was “generally comparable with placebo” and the mild side effects (trials with HIV-1-infected patients dosed with etravirine) was “diarrhea, headache, abdominal pain, acute tonsillitis, flatulence, gastroenteritis, hot flushes, insomnia, intercostal pain, pruritus, somnolence, tachycardia and vomiting”.
